According to patent publication US20120058085A1, “Deuterium Modified Benzimidazoles” (priority 2009, published 2012):
Like-named read-outs stand apart in the source and are kept apart here.

Experiment: Evaluation of Metabolic Stability in Human Liver Microsomes
Type: in vitro ADME
Conditions: for percentage increase in half-life in going from clemizole to the test compound, Average / percentage increase in half-life in going from clemizole to the test compound, run A / percentage increase in half-life in going from clemizole to the test compound, run B / percentage increase in half-life in going from clemizole to the test compound, run C / percentage increase in half-life in going from clemizole to the test compound, run D: HLM, relative to clemizole; for half-life: human, microsomes
Protocol: Human liver microsomes (20 mg/mL) are obtained from Xenotech, LLC (Lenexa, KS). β-nicotinamide adenine dinucleotide phosphate, reduced form (NADPH), magnesium chloride (MgCl2), and dimethyl sulfoxide (DMSO) are purchased from Sigma-Aldrich.
Determination of Metabolic Stability: 7.5 mM stock solutions of test compounds are prepared in DMSO. The 7.5 mM stock solutions are diluted to 12.5 μM in acetonitrile (ACN). The 20 mg/mL human liver microsomes are diluted to 0.625 mg/mL in 0.1 M potassium phosphate buffer, pH 7.4, containing 3 mM MgCl2. The diluted microsomes (375 μL) are added to wells of a 96-well deep-well polypropylene plate in triplicate. Ten to 40 μL of the 12.5 μM test compound is added to the microsomes and the mixture is pre-warmed for 10 minutes. Reactions are initiated by addition of 125 μL of pre-warmed NADPH solution. The final reaction volume is 0.5 mL and contains 0.5 mg/mL human liver microsomes, 0.25-1.0 μM test compound, and 2 mM NADPH in 0.1 M potassium phosphate buffer, pH 7.4, and 3 mM MgCl2. The reaction mixtures are incubated at 37° C., and 50 μL aliquots are removed at 0, 5, 10, 20, and 30 minutes and added to shallow-well 96-well plates which contain 50 μL of ice-cold ACN with internal standard to stop the reactions. The plates are stored at 4° C. for 20 minutes after which 100 μL of water is added to the wells of the plate before centrifugation to pellet precipitated proteins. Supernatants are transferred to another 96-well plate and analyzed for amounts of parent compound remaining by LC-MS/MS using an Applied Bio-systems API 4000 mass spectrometer. The same procedure is followed for the non-deuterated counterpart of the compound of Formula I and the positive control, 7-ethoxycoumarin (1 μM). Testing is done in triplicate.
Data analysis: The in vitro half-lives (t1/2s) for test compounds are calculated from the slopes of the linear regression of % parent remaining (In) vs incubation time relationship using the following formula:
in vitro t1/2=0.693/k, where k=-[slope of linear regression of % parent remaining(1n) vs incubation time]
Data analysis is performed using Microsoft Excel Software.
Four separate metabolic stability runs were performed in Human Liver Microsomes (HLM) for clemizole and for test compounds of the invention. […] The values in parenthesis in columns A through D and in the “Average” column indicate the percentage increase in half-life in going from clemizole to the test compound.

[1] = pH 7.4, HLM 0.5 mg/mL, 2 mM NADPH, 37° C., run A, read-out: t½ (min) A
[2] = pH 7.4, HLM 0.5 mg/mL, 2 mM NADPH, 37° C., run B, read-out: t½ (min) B
[3] = pH 7.4, HLM 0.5 mg/mL, 2 mM NADPH, 37° C., run C, read-out: t½ (min) C
[4] = pH 7.4, HLM 0.5 mg/mL, 2 mM NADPH, 37° C., run D, read-out: t½ (min) D
[5] = pH 7.4, HLM, average of runs A-D, read-out: Ave t½

SMILES	percentage increase in half-life in going from clemizole to the test compound, Average (average of runs A-D)	percentage increase in half-life in going from clemizole to the test compound, run A (run A)	percentage increase in half-life in going from clemizole to the test compound, run B (run B)	percentage increase in half-life in going from clemizole to the test compound, run C (run C)	percentage increase in half-life in going from clemizole to the test compound, run D (run D)	half-life [1] [min]	half-life [2] [min]	half-life [3] [min]	half-life [4] [min]	half-life [5] [min]
[2H]C([2H])(c1ccc(Cl)cc1)n1c(CN2CCCC2)nc2ccccc21 [Compound 100, 1-(4-Chlorophenyl-d2-methyl)-2-(pyrrolidin-1-ylmethyl)-1H-benzo[d]imid-azole]	(+4%)	(+2%)	(+0.3%)	(+4%)	(+13%)	13.7	14.1	13.8	13.8	13.9
[2H]C([2H])(c1nc2ccccc2n1Cc1ccc(Cl)cc1)N1CCCC1 [Compound 101, 1-(4-Chlorobenzyl)-2-(d2-(pyrrolidin-1-yl)methyl)-1H-benzo[d]imidazole]	–	(+18%)	(+8%)	(+9%)	(+14%)	15.9	15.2	14.4	14	14.9
[2H]C1([2H])N(Cc2nc3ccccc3n2Cc2ccc(Cl)cc2)C([2H])([2H])C([2H])([2H])C1([2H])[2H] [Compound 102, 1-(4-Chlorobenzyl)-2-((2,2,3,3,4,4,5,5-d8-pyrrolidin-1-yl)methyl)-1H-benzo[d]imidazole]	–	(+41%)	(+38%)	(+32%)	(+36%)	18.9	19.4	17.6	16.7	18.2
[2H]C1([2H])CCC([2H])([2H])N1Cc1nc2ccccc2n1Cc1ccc(Cl)cc1 [Compound 104]	–	(+15%)	(+16%)	(+17%)	(+27%)	15.5	16.3	15.5	15.6	15.7
[2H]C([2H])(c1nc2ccccc2n1C([2H])([2H])c1ccc(Cl)cc1)N1CCCC1 [Compound 105, 1-(4-Chlorophenyl-d2-methyl)-2-(d2-(pyrrolidin-1-yl)methyl)-1H-benzo[d]imidazole]	(+6%)	(+0.9%)	(+6%)	(+6%)	(+13%)	13.6	14.9	14	13.9	14
[2H]C([2H])(c1ccc(Cl)cc1)n1c(CN2C([2H])([2H])C([2H])([2H])C([2H])([2H])C2([2H])[2H])nc2ccccc21 [Compound 106]	–	(+21%)	(+22%)	(+22%)	(+36%)	16.2	17.2	16.2	16.7	16.6
[2H]C([2H])(c1nc2ccccc2n1C([2H])([2H])c1ccc(Cl)cc1)N1C([2H])([2H])C([2H])([2H])C([2H])([2H])C1([2H])[2H] [Compound 110, 1-(4-Chlorophenyl-d2-methyl)-2-(d2-(2,2,3,3,4,4,5,5-d8-pyrrolidin-1-yl)methyl)-1H-benzo[d]imidazole]	–	(+18%)	(+30%)	(+34%)	(+38%)	15.8	18.2	17.8	17	17.2
Clc1ccc(Cn2c(CN3CCCC3)nc3ccccc32)cc1 [clemizole, 1-(p-chlorobenzyl)-2-(1-pyrrolidinylmethyl) benzimidazole, reference compound]	–	–	–	–	–	13.5	14	13.3	12.3	13.3
